According to patent CN116283752A (priority 2023, dated 2023):
Converted amounts (≈) assume the structure as drawn. Like-named read-outs stand apart in the source and are kept apart here.

Assays:
Format in all cases: cell-based
[1] = test system: autoluminescent Mycobacterium tuberculosis H37Ra [自主发光Mtb H37Ra]; experiment: microbe, parasite or virus in culture
[2] = test system: Mycobacterium tuberculosis H37Ra [结核分枝杆菌H37Ra]
[3] = test system: wild-type Mycobacterium tuberculosis H37Rv [野生型结核分枝杆菌(H37Rv)]; experiment: microbe, parasite or virus in culture; conditions: Alamar Blue, 37℃, 10 days + 1 day; for MIC: compound alone; for MIC + TB47: with TB47 0.003 μg/mL
[4] = Mycobacterium tuberculosis, H37RA, read-out: MIC
[5] = Mycobacterium tuberculosis, read-out: MIC

Work on O=C(Nc1cncc(C(F)(F)F)c1)c1cc(Cl)ccc1O [compound 5, 5-氯-2-羟基-N-(5-三氟甲基-3-吡啶基)-苯甲酰胺] yielded an MIC [1, 4] of 5 µg/mL (≈ 15.8 µM).

With O=C(Nc1cc(Cl)nc(Cl)c1)c1cc(Cl)ccc1O [compound 6, 5-氯-N-(2,6-二氯-4-吡啶基)-2-羟基苯甲酰胺] the MIC [1] was 1.25 µg/mL (≈ 3.94 µM), the MIC [1, 4] was 1.25 µg/mL (≈ 3.94 µM) and the “MIC in synergy with TB47” value [2] was 0.625 µg/mL.

Work on O=C(Nc1cnc(Cl)cn1)c1cc(Cl)ccc1O [compound 9, 5-氯-N-(5-氯-2-吡嗪基)-2-羟基苯甲酰胺] yielded an MIC [1, 4] of 4 µg/mL (≈ 14.1 µM).

With O=C(Nc1ncc(Cl)cn1)c1cc(Cl)ccc1O [compound 12, 5-氯-N-(5-氯-2-嘧啶基)-2-羟基苯甲酰胺] the MIC [1, 4] was 5 µg/mL (≈ 17.6 µM).

O=C(Nc1cnc(Cl)nc1)c1cc(Cl)ccc1O [compound 13, 5-氯-N-(2-氯-5-嘧啶基)-2-羟基苯甲酰胺] showed an MIC [1, 4] of 5 µg/mL (≈ 17.6 µM).

O=C(Nc1cc(Cl)ncn1)c1cc(Cl)ccc1O [compound 14, 5-氯-N-(6-氯-4-嘧啶基)-2-羟基苯甲酰胺] gave an MIC [1, 4] of 2.5 µg/mL (≈ 8.8 µM).

Work on O=C(Nc1nccc(C(F)(F)F)n1)c1cc(Cl)ccc1O [compound 15, 5-氯-2-羟基-N-(4-三氟甲基-2-嘧啶基)-苯甲酰胺] yielded an MIC [1, 4] of 5 µg/mL (≈ 15.7 µM).

For O=C(Nc1cc(C(F)(F)F)ncn1)c1cc(Cl)ccc1O [compound 16, 5-氯-2-羟基-N-(6-三氟甲基-4-嘧啶基)-苯甲酰胺], the MIC [1] was 2.5 µg/mL (≈ 7.87 µM), the MIC [1, 4] was 2.5 µg/mL (≈ 7.87 µM) and the “MIC in synergy with TB47” value [2] was 0.625 µg/mL.

For O=C(Nc1nc2ccc(OC(F)(F)F)cc2s1)c1cc(Cl)ccc1O [compound 17, 5-氯-2-羟基-N-(6-三氟甲氧基-2-苯并噻唑基)-苯甲酰胺], the MIC [1, 4] was 10 µg/mL (≈ 25.7 µM).

Compound O=C(Nc1ccc(Cl)nn1)c1cc(Cl)ccc1O [compound 19, 5-氯-N-(6-氯-3-哒嗪基)-2-羟基苯甲酰胺] has an MIC [1, 4] of 10 µg/mL (≈ 35.2 µM).

In the case of O=C(Nc1nnc(C(F)(F)F)s1)c1cc(Cl)ccc1O [compound 20, 5-氯-2-羟基-N-[5-三氟甲基-2-(1,3,4-噻二唑基)]-苯甲酰胺], the MIC [1, 4] was 10 µg/mL (≈ 30.9 µM).

Work on O=C(Nc1ncc(Cl)s1)c1cc(Cl)ccc1O [compound 21, 5-氯-N-(5-氯-2-噻唑基)-2-羟基苯甲酰胺] yielded an MIC [1, 4] of 5 µg/mL (≈ 17.3 µM).

Work on O=C(Nc1ccc(Cl)cn1)c1cc(Cl)ccc1O [化合物1, 5-氯-N-(5-氯-2-吡啶基)-2-羟基苯甲酰胺] yielded an MIC [1, 4] of 5 µg/mL (≈ 17.7 µM).

With O=C(Nc1ccc(C(F)(F)F)cn1)c1cc(Cl)ccc1O [化合物2, 5-氯-2-羟基-N-(5-三氟甲基-2-吡啶基)-苯甲酰胺] the MIC [1] was 1.25 µg/mL (≈ 3.95 µM) and the MIC [1, 4] was 1.25 µg/mL (≈ 3.95 µM).

O=C(Nc1ccc(C(F)(F)F)nc1)c1cc(Cl)ccc1O [化合物3, 5-氯-2-羟基-N-(6-三氟甲基-3-吡啶基)-苯甲酰胺] was tested, and the MIC [1] was 4 µg/mL (≈ 12.6 µM), the MIC [1, 4] was 4 µg/mL (≈ 12.6 µM) and the “MIC in synergy with TB47” value [2] was 0.25 µg/mL. The MIC [3, 5] was 4 µg/mL and the “MIC + TB47” value [3] was 0.5 µg/mL.

With O=C(Nc1ccnc(C(F)(F)F)c1)c1cc(Cl)ccc1O [化合物4, 5-氯-2-羟基-N-(2-三氟甲基-4-吡啶基)-苯甲酰胺] the MIC [1] was 1.25 µg/mL (≈ 3.95 µM), the MIC [1, 4] was 1.25 µg/mL (≈ 3.95 µM) and the “MIC in synergy with TB47” value [2] was 0.625 µg/mL. For the same compound, the MIC [3, 5] was 2 µg/mL, the MIC [3] was 2 µg/mL and the “MIC + TB47” value [3] was less than 0.125 µg/mL.

O=C(Nc1cnc(Cl)c(Cl)c1)c1cc(Cl)ccc1O [化合物7, 5-氯-N-(5,6-二氯-3-吡啶基)-2-羟基苯甲酰胺] was tested, and the MIC [1, 4] was 2.5 µg/mL (≈ 7.87 µM), the MIC [3, 5] was 4 µg/mL and the “MIC + TB47” value [3] was 0.25 µg/mL.

With O=C(Nc1ccc(Cl)nc1Cl)c1cc(Cl)ccc1O [化合物8, 5-氯-N-(2,6-二氯-3-吡啶基)-2-羟基苯甲酰胺] the MIC [1] was 2.5 µg/mL (≈ 7.87 µM), the MIC [1, 4] was 2.5 µg/mL (≈ 7.87 µM) and the “MIC in synergy with TB47” value [2] was 0.625 µg/mL. The MIC [3, 5] was 4 µg/mL and the “MIC + TB47” value [3] was 0.25 µg/mL.

With O=C(Nc1cncc(Cl)n1)c1cc(Cl)ccc1O [化合物10, 5-氯-N-(6-氯-2-吡嗪基)-2-羟基苯甲酰胺] the MIC [1, 4] was 2.5 µg/mL (≈ 8.8 µM), the MIC [3, 5] was 4 µg/mL and the “MIC + TB47” value [3] was 0.25 µg/mL.

In the case of O=C(Nc1cnc(C(F)(F)F)cn1)c1cc(Cl)ccc1O [化合物11, 5-氯-2-羟基-N-(5-三氟甲基-2-吡嗪基)-苯甲酰胺], the MIC [1] was 1.25 µg/mL (≈ 3.94 µM), the MIC [1, 4] was 1.25 µg/mL (≈ 3.94 µM) and the “MIC in synergy with TB47” value [2] was 0.625 µg/mL. The MIC [3, 5] was 2 µg/mL, the MIC [3] was 2 µg/mL and the “MIC + TB47” value [3] was less than 0.125 µg/mL.

With O=C(Nc1nc2ccc(C(F)(F)F)cc2s1)c1cc(Cl)ccc1O [化合物18, 5-氯-2-羟基-N-(6-三氟甲基-2-苯并噻唑基)-苯甲酰胺] the MIC [1] was 5 µg/mL (≈ 13.4 µM), the MIC [1, 4] was 5 µg/mL (≈ 13.4 µM) and the “MIC in synergy with TB47” value [2] was 0.625 µg/mL.
